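Exposure lasted 48 hours, with cells grown in 96-well plates and compounds tested at five concentrations. Abbreviation: GI50, concentration required for 50% inhibition of growth. TGI is the concentration that stops growth completely.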 Where a SMILES comes first, the peptide text is derived from it. The star is where a group is joined. Cbz = O=C(OCc1ccccc1)*; CH2Cl = ClC*
System: NCI-H460 lung
Assay: DTP human tumour cell line panel, 48 h

Row | SMILES | TGI [µM] | GI50 [µM]
1 | Cc1c2c(C#N)nccc2c(C)c2c1c1ccccc1n2Cc1ccccc1 | > 100 | –
2 | COc1cc(Cn2c(-c3ccccc3)c(Cl)c3c2-c2oncc2CC3)cc(OC)c1 | 84 | 4.91
3 | COc1ccc(-c2nn(-c3ccc(NC(=O)c4ccc(Cl)c(Cl)c4)cc3)cc2-c2ccncc2)cc1Cl | > 50 | 2.02
4 | O=C(CC1(O)C(=O)N(Cc2ccccc2)c2ccc(F)cc21)c1ccc(C(=O)NCC2CCC3(CC2)OOC2(CCCCC2)OO3)cc1 (configuration not stated) | 0.487 | 0.21
5 | COc1cc2c3c(n(C)c(=O)c2cc1OC)-c1cc2c(cc1/C3=C\CN)OCO2 | > 24.1 | 0.0879
6 | CN(C)C(n1cc2c(c1)-c1ccc(Cl)cc1C(c1ccccc1F)=NC2)n1cc2c(c1)-c1ccc(Cl)cc1C(c1ccccc1F)=NC2 | > 100 | –
7 | COc1ccc(/C=C2/N=C(c3ccccc3)N(c3c(C)n(C)n(-c4ccccc4)c3=O)C2=O)cc1OC | > 100 | > 100
8 | C[C@@H]1CC[C@@H]2[C@@H]1[C@H](OC(=O)/C=C/c1ccccc1)[C@]1(C3CCCCC3)C[C@@H](OC(=O)CO)[C@@]2(C)O1 | 6.55 | 2.62
9 | CCn1c2ccccc2c2cc(NC(=O)Nc3ccc([N+](=O)[O-])cc3C)ccc21 | 14.8 | 3.09
10 | COc1cccc2c1C(=O)c1c(O)c3c(c(O)c1C2=O)C[C@](O)(C(=O)CO)C[C@H]3O[C@@H]1C[C@@H](NC(=O)CCCCCN(C)C2(c3ccc(F)cc3)CC3CCC2C3)[C@H](O)[C@@H](C)O1 (some centres not stated) | 1.37 | 0.555
11 | CCSc1ncnc2c1ncn2C1OC(CO)C(O)C1O (configuration not stated) | > 100 | 0.6
12 | O=C(CSc1nc2ccccc2nc1-c1ccccc1)Nc1ccc(F)cc1 | > 100 | 60.7
13 | CC[C@H]1[C@@H]2C=C[C@@H]3[C@H]4C/C=C\C(=O)NCCC[C@@H]5NC(=O)/C(=C(O)/C=C/[C@@H]4C[C@@H]3[C@H]2C[C@H]1C)C5=O | 1.84 | 0.409

System: SNB-19 CNS
Assay: DTP human tumour cell line panel, 48 h

Row | SMILES | GI50 [µM] | TGI [µM]
14 | O=C(N[C@@H](c1ccc(Cl)c(Cl)c1)C1CNC1)c1ccc2cnccc2c1 | 0.649 | 10.7
15 | O=C1OCC2=C1C(c1cccc(Br)c1)c1cc3c(cc1N2CCO)CCC3 (configuration not stated) | 0.209 | 9.98
16 | Nc1nc(/C=C\c2ccc([N+](=O)[O-])s2)nc(N2CCCC2)n1 | 3.01 | 21.6
17 | CC(=O)OC12C=CC(=O)N1c1ccccc1C(=O)O2 (configuration not stated) | – | > 100
18 | Oc1cccnc1[Se] | – | > 100
19 | CC(C)Oc1ccc2cc(-c3nn(CC4CCNCC4)c4ncnc(N)c34)ccc2c1 | 12.7 | 26
20 | COc1cc(F)ccc1-c1ncnc(Nc2cccc(CS(C)(=N)=O)c2)n1 (configuration not stated) | 1.08 | > 100
21 | CS(=O)(=O)CCNCc1nc(-c2ccc3ncnc(Nc4ccc(OCc5cccc(C(F)(F)F)c5)cc4)c3c2)cs1 | 11.1 | > 25
22 | CC(C)CC(NC(=O)OCc1ccccc1)C(=O)NC(Cc1ccccc1)C(=O)CCl (stereo not drawn) (Cbz-Leu-Phe-CH2Cl; configuration not given here) | – | > 56.8
23 | [Cl][Hg][c]1cc[c]([Hg][Cl])o1 | 3.44 | 15.8
24 | CCOC(=O)C(Cc1ccc(CCCC(=O)NCCC(=O)Nc2ccc3nc(C)sc3c2)cc1)C(=O)OCC | > 100 | > 100
25 | NCCNc1c2c(c(NCCN)c3[nH]ccc13)C(=O)c1ccccc1C2=O | 0.206 | 1.12
26 | Cc1c2c(C#N)nccc2c(C)c2c1c1ccccc1n2Cc1ccccc1 | – | > 100
27 | COc1cc(Cn2c(-c3ccccc3)c(Cl)c3c2-c2oncc2CC3)cc(OC)c1 | 22.8 | > 100
28 | COc1ccc(-c2nn(-c3ccc(NC(=O)c4ccc(Cl)c(Cl)c4)cc3)cc2-c2ccncc2)cc1Cl | 4.2 | > 50
29 | O=C(CC1(O)C(=O)N(Cc2ccccc2)c2ccc(F)cc21)c1ccc(C(=O)NCC2CCC3(CC2)OOC2(CCCCC2)OO3)cc1 (configuration not stated) | 3.44 | 43.5
30 | COc1cc2c3c(n(C)c(=O)c2cc1OC)-c1cc2c(cc1/C3=C\CN)OCO2 | < 0.0405 | –
31 | CN(C)C(n1cc2c(c1)-c1ccc(Cl)cc1C(c1ccccc1F)=NC2)n1cc2c(c1)-c1ccc(Cl)cc1C(c1ccccc1F)=NC2 | – | > 100
32 | COc1ccc(/C=C2/N=C(c3ccccc3)N(c3c(C)n(C)n(-c4ccccc4)c3=O)C2=O)cc1OC | > 100 | > 100
33 | C[C@@H]1CC[C@@H]2[C@@H]1[C@H](OC(=O)/C=C/c1ccccc1)[C@]1(C3CCCCC3)C[C@@H](OC(=O)CO)[C@@]2(C)O1 | 3.94 | 13.6
34 | CCn1c2ccccc2c2cc(NC(=O)Nc3ccc([N+](=O)[O-])cc3C)ccc21 | 8.95 | > 100
35 | COc1cccc2c1C(=O)c1c(O)c3c(c(O)c1C2=O)C[C@](O)(C(=O)CO)C[C@H]3O[C@@H]1C[C@@H](NC(=O)CCCCCN(C)C2(c3ccc(F)cc3)CC3CCC2C3)[C@H](O)[C@@H](C)O1 (some centres not stated) | 6.48 | 14.8
36 | CCSc1ncnc2c1ncn2C1OC(CO)C(O)C1O (configuration not stated) | 8.24 | > 100
37 | O=C(CSc1nc2ccccc2nc1-c1ccccc1)Nc1ccc(F)cc1 | 34.5 | > 100
38 | CC[C@H]1[C@@H]2C=C[C@@H]3[C@H]4C/C=C\C(=O)NCCC[C@@H]5NC(=O)/C(=C(O)/C=C/[C@@H]4C[C@@H]3[C@H]2C[C@H]1C)C5=O | 1.04 | 2.42

System: COLO 205 colon
Assay: DTP human tumour cell line panel, 48 h

Row | SMILES | GI50 [µM] | TGI [µM]
39 | O=C(N[C@@H](c1ccc(Cl)c(Cl)c1)C1CNC1)c1ccc2cnccc2c1 | 0.194 | 1.29
40 | O=C1OCC2=C1C(c1cccc(Br)c1)c1cc3c(cc1N2CCO)CCC3 (configuration not stated) | 0.111 | 0.263
41 | Nc1nc(/C=C\c2ccc([N+](=O)[O-])s2)nc(N2CCCC2)n1 | 0.524 | 3.5
42 | CC(=O)OC12C=CC(=O)N1c1ccccc1C(=O)O2 (configuration not stated) | – | > 100
43 | Oc1cccnc1[Se] | – | 35
44 | CC(C)Oc1ccc2cc(-c3nn(CC4CCNCC4)c4ncnc(N)c34)ccc2c1 | 3.39 | 13.2
45 | COc1cc(F)ccc1-c1ncnc(Nc2cccc(CS(C)(=N)=O)c2)n1 (configuration not stated) | 0.4 | 2.18
46 | CS(=O)(=O)CCNCc1nc(-c2ccc3ncnc(Nc4ccc(OCc5cccc(C(F)(F)F)c5)cc4)c3c2)cs1 | > 23.9 | > 25
47 | CC(C)CC(NC(=O)OCc1ccccc1)C(=O)NC(Cc1ccccc1)C(=O)CCl (stereo not drawn) (Cbz-Leu-Phe-CH2Cl; configuration not given here) | – | 8.44
48 | [Cl][Hg][c]1cc[c]([Hg][Cl])o1 | 1.65 | 3.26
49 | CCOC(=O)C(Cc1ccc(CCCC(=O)NCCC(=O)Nc2ccc3nc(C)sc3c2)cc1)C(=O)OCC | 32.3 | > 96.4
50 | NCCNc1c2c(c(NCCN)c3[nH]ccc13)C(=O)c1ccccc1C2=O | 0.28 | 5.8
51 | Cc1c2c(C#N)nccc2c(C)c2c1c1ccccc1n2Cc1ccccc1 | – | > 100
52 | COc1cc(Cn2c(-c3ccccc3)c(Cl)c3c2-c2oncc2CC3)cc(OC)c1 | 8.03 | 30.6
53 | COc1ccc(-c2nn(-c3ccc(NC(=O)c4ccc(Cl)c(Cl)c4)cc3)cc2-c2ccncc2)cc1Cl | 1.45 | 3.8
54 | O=C(CC1(O)C(=O)N(Cc2ccccc2)c2ccc(F)cc21)c1ccc(C(=O)NCC2CCC3(CC2)OOC2(CCCCC2)OO3)cc1 (configuration not stated) | 0.728 | 2.02
55 | COc1cc2c3c(n(C)c(=O)c2cc1OC)-c1cc2c(cc1/C3=C\CN)OCO2 | 0.156 | –
56 | CN(C)C(n1cc2c(c1)-c1ccc(Cl)cc1C(c1ccccc1F)=NC2)n1cc2c(c1)-c1ccc(Cl)cc1C(c1ccccc1F)=NC2 | – | > 100
57 | COc1ccc(/C=C2/N=C(c3ccccc3)N(c3c(C)n(C)n(-c4ccccc4)c3=O)C2=O)cc1OC | > 100 | > 100
58 | C[C@@H]1CC[C@@H]2[C@@H]1[C@H](OC(=O)/C=C/c1ccccc1)[C@]1(C3CCCCC3)C[C@@H](OC(=O)CO)[C@@]2(C)O1 | 3.12 | 11.1
59 | CCn1c2ccccc2c2cc(NC(=O)Nc3ccc([N+](=O)[O-])cc3C)ccc21 | 2.82 | 10.3
60 | COc1cccc2c1C(=O)c1c(O)c3c(c(O)c1C2=O)C[C@](O)(C(=O)CO)C[C@H]3O[C@@H]1C[C@@H](NC(=O)CCCCCN(C)C2(c3ccc(F)cc3)CC3CCC2C3)[C@H](O)[C@@H](C)O1 (some centres not stated) | 0.728 | 1.65
61 | CCSc1ncnc2c1ncn2C1OC(CO)C(O)C1O (configuration not stated) | 0.777 | > 100
62 | O=C(CSc1nc2ccccc2nc1-c1ccccc1)Nc1ccc(F)cc1 | 83.3 | > 100
63 | CC[C@H]1[C@@H]2C=C[C@@H]3[C@H]4C/C=C\C(=O)NCCC[C@@H]5NC(=O)/C(=C(O)/C=C/[C@@H]4C[C@@H]3[C@H]2C[C@H]1C)C5=O | 3.24 | 8.44

From PubChem BioAssay (NCI)
